# Results taken from publication PMC9299836 (eLife, 2022).
# What was measured:
# mGluR2 [1] = molecular target: T1, mGluR2 (Mus musculus, UniProt Q14BI2, A548F); assay: Single-molecule FRET (SiMPull) of azi-CRD: population histograms and state occupancy; conditions: azi-CRD, 10 μM modulator, fraction of total area;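 also: Cy3/Cy5-labelled receptor from HEK293T cell lysate captured on anti-FLAG surfaces, apparent FRET efficiency computed from donor and acceptor intensities with crosstalk correction, pooled into population histograms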
# T1 sequence (Q14BI2 19-872 A548F): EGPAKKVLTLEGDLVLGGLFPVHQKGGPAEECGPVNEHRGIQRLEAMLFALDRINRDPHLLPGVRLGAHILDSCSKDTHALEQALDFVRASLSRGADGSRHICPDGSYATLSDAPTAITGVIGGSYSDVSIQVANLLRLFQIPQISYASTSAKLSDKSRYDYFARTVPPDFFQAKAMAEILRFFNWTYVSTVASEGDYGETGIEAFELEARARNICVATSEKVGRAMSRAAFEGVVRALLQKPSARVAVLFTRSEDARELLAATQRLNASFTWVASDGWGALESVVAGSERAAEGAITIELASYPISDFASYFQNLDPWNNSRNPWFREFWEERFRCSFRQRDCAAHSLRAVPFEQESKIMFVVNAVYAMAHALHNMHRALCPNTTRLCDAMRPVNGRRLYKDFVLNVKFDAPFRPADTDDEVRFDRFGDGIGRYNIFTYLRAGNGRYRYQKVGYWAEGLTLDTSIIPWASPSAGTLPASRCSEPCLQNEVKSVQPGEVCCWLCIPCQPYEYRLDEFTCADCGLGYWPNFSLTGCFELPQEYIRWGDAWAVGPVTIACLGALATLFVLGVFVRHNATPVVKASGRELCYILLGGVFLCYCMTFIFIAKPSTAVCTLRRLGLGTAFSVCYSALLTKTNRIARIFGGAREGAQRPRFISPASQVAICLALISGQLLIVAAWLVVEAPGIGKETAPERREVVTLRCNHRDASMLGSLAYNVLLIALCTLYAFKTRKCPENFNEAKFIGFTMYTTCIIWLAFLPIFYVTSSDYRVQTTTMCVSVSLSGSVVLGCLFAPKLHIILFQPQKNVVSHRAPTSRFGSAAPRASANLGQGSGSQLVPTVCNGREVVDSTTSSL
# mGluR2 [2] = molecular target: T1, mGluR2; assay: smFRET of azi-CRD: cross-correlation of donor and acceptor intensities (CRD dynamics) and HMM transition density plots; conditions: 0μM Glutamate + GPT/Pyruvate + 10μM BINA, N 3;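 also: single detergent-solubilized receptors captured on antibody-coated flow cells via C-terminal FLAG-tag, imaged by smFRET, donor and acceptor intensity traces from three independent biological replicates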
smiles,measurement,setting,value
Cc1c(OCc2cccc(-c3ccc(C(=O)O)cc3)c2)cc2c(c1C)C(=O)C(C1CCCC1)C2 (stereo not drawn) [BINA],"Mean occupancy, state 1 (inactive, FRET 0.24)",mGluR2 [1]; 0 μM glutamate,0.3053
same,"Mean occupancy, state 2 (intermediate 1, FRET 0.38)",mGluR2 [1]; 0 μM glutamate,0.5199
same,"Mean occupancy, state 3 (intermediate 2, FRET 0.70)",mGluR2 [1]; 0 μM glutamate,0.1483
same,"Mean occupancy, state 4 (active, FRET 0.87)",mGluR2 [1]; 0 μM glutamate,0.02653
same,"Mean occupancy, state 1 (inactive, FRET 0.24)",mGluR2 [1]; 1000 μM glutamate,0.00296
same,"Mean occupancy, state 2 (intermediate 1, FRET 0.38)",mGluR2 [1]; 1000 μM glutamate,0.03751
same,"Mean occupancy, state 3 (intermediate 2, FRET 0.70)",mGluR2 [1]; 1000 μM glutamate,0.2179
same,"Mean occupancy, state 4 (active, FRET 0.87)",mGluR2 [1]; 1000 μM glutamate,0.7416
same,"Cross Correlation, Mean",mGluR2 [2]; Time 0 s,-0.309
same,"Cross Correlation, Mean",mGluR2 [2]; Time 0.05 s,-0.1732
same,"Cross Correlation, Mean",mGluR2 [2]; Time 0.1 s,-0.1405
same,"Cross Correlation, Mean",mGluR2 [2]; Time 0.15 s,-0.1268
same,"Cross Correlation, Mean",mGluR2 [2]; Time 0.2 s,-0.1138
same,"Cross Correlation, Mean",mGluR2 [2]; Time 0.25 s,-0.1079
same,"Cross Correlation, Mean",mGluR2 [2]; Time 0.3 s,-0.1007
same,"Cross Correlation, Mean",mGluR2 [2]; Time 0.35 s,-0.09667
same,"Cross Correlation, Mean",mGluR2 [2]; Time 0.4 s,-0.08889
same,"Cross Correlation, Mean",mGluR2 [2]; Time 0.45 s,-0.08933
same,"Cross Correlation, Mean",mGluR2 [2]; Time 0.5 s,-0.08286
same,"Cross Correlation, Mean",mGluR2 [2]; Time 0.55 s,-0.07956
same,"Cross Correlation, Mean",mGluR2 [2]; Time 0.6 s,-0.07731
same,"Cross Correlation, Mean",mGluR2 [2]; Time 0.65 s,-0.07407
same,"Cross Correlation, Mean",mGluR2 [2]; Time 0.7 s,-0.07365
same,"Cross Correlation, Mean",mGluR2 [2]; Time 0.75 s,-0.06697
same,"Cross Correlation, Mean",mGluR2 [2]; Time 0.8 s,-0.06199
same,"Cross Correlation, Mean",mGluR2 [2]; Time 0.85 s,-0.06042
same,"Cross Correlation, Mean",mGluR2 [2]; Time 0.9 s,-0.05216
same,"Cross Correlation, Mean",mGluR2 [2]; Time 0.95 s,-0.05689
same,"Cross Correlation, Mean",mGluR2 [2]; Time 1 s,-0.0539
same,"Cross Correlation, Mean",mGluR2 [2]; Time 1.05 s,-0.05356
same,"Cross Correlation, Mean",mGluR2 [2]; Time 1.1 s,-0.0518
same,"Cross Correlation, Mean",mGluR2 [2]; Time 1.15 s,-0.0477
same,"Cross Correlation, Mean",mGluR2 [2]; Time 1.2 s,-0.04715
same,"Cross Correlation, Mean",mGluR2 [2]; Time 1.25 s,-0.04267
same,"Cross Correlation, Mean",mGluR2 [2]; Time 1.3 s,-0.04926
same,"Cross Correlation, Mean",mGluR2 [2]; Time 1.35 s,-0.04133
same,"Cross Correlation, Mean",mGluR2 [2]; Time 1.4 s,-0.03906
same,"Cross Correlation, Mean",mGluR2 [2]; Time 1.45 s,-0.0385
same,"Cross Correlation, Mean",mGluR2 [2]; Time 1.5 s,-0.035
same,"Cross Correlation, Mean",mGluR2 [2]; Time 1.55 s,-0.03506
same,"Cross Correlation, Mean",mGluR2 [2]; Time 1.6 s,-0.03291
same,"Cross Correlation, Mean",mGluR2 [2]; Time 1.65 s,-0.03291
same,"Cross Correlation, Mean",mGluR2 [2]; Time 1.7 s,-0.03331
same,"Cross Correlation, Mean",mGluR2 [2]; Time 1.75 s,-0.03095
same,"Cross Correlation, Mean",mGluR2 [2]; Time 1.8 s,-0.02869
same,"Cross Correlation, Mean",mGluR2 [2]; Time 1.85 s,-0.03476
same,"Cross Correlation, Mean",mGluR2 [2]; Time 1.9 s,-0.02485
same,"Cross Correlation, Mean",mGluR2 [2]; Time 1.95 s,-0.02573
same,"Cross Correlation, Mean",mGluR2 [2]; Time 2 s,-0.0316
same,"Cross Correlation, Mean",mGluR2 [2]; Time 2.05 s,-0.03349
same,"Cross Correlation, Mean",mGluR2 [2]; Time 2.1 s,-0.02361
same,"Cross Correlation, Mean",mGluR2 [2]; Time 2.15 s,-0.02192
same,"Cross Correlation, Mean",mGluR2 [2]; Time 2.2 s,-0.02164
same,"Cross Correlation, Mean",mGluR2 [2]; Time 2.25 s,-0.01683
